From patent US12570648B2, “6,7-dihydro-5H-pyrido[2,3-c]pyridazine derivatives and related compounds as Bcl-xL protein inhibitors and pro-apoptotic agents for treating cancer” (LES LABORATOIRES SERVIER, priority 2019, dated 2026)

What was measured:
[1] = molecular target: His-His-(EK)-hsBCLXL(2-197)[N197C] (Homo sapiens (Human), UniProt Q07817, N197C); test: Fluorescence quenching assay; format: binding; conditions: 1 nM Cy5-labelled protein, 400 nM PUMA peptide, 2 hours at 23° C.; KI determined from IC50
Source text: Fluorescence quenching assay measures the change in fluorescence intensity of C-terminally Cy5-labelled BCL-xL protein, His-His-(EK)-hsBCLXL(2-197)[N197C] (UniProtKB®
which is linked in C-terminal region to the amino acid X which corresponds to a cysteine labelled on the sulfur with Sulfo-Cyanine5 from Lumiprobe GmbH catalogue number 13380, upon binding of a C-terminally labelled peptide derived from PUMA (UniProtKB® primary accession number Q9BXH1) having an aminoacid sequence (SEQ ID:04): [[…]] which is linked in C-terminal region to the amino acid X′ where X′ is cysteine labelled on the sulfur with TQ5WS from AAT Bioquest catalogue number 2079.
The addition of a compound which binds competitively to the same site as the peptide will result in an increase in the fluorescence intensity of the protein due to displacement of the fluorescence quencher.
An 11-point serial dilution of each compound was prepared in DMSO, the final buffer conditions were 10 mM 4-(2-hydroxyethyl)-1-piperazineethanesulfonic acid [HEPES], 150 mM NaCl, 0.05% Tween 20, pH 7.4 and 5% DMSO. The final protein concentration in the assay was 1 nM with the peptide present at 400 nM. The experiments were incubated for 2 hours at 23° C. before fluorescence intensity was measured on a Biotek SynergyNeo plate reader (Excitation 620 nm, emission 680 nm). […] The K1 values were determined from the IC50 values according to Cer et al, Nucleic Acids Res, 2009, Jul. 1; 37 (WebServer issue): W441-W445.

MOLT-4 cells = test: MOLT-4 cell viability using MTT assay; format: cell-based; conditions: 48 h exposure
Method: MTT colorimetric assay is based on the mitochondrial reduction of tetrazolium salt by living cells.
Cells were cultured at 37° C. in a humidified atmosphere containing 5% CO2. […] At the end of incubation time, 15 μL of MTT solution (5 mg/ml) were added per well and the cells were incubated for another 4 h. […] IC50s were calculated using standard four-parametric curve fitting.

Sequence of His-His-(EK)-hsBCLXL(2-197)[N197C] (Q07817 2-197 N197C): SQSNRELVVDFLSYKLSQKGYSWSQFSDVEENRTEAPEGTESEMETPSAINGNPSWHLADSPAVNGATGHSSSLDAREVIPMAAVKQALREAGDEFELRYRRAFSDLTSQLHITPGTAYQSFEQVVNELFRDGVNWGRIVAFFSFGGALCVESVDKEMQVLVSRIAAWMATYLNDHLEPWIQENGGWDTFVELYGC

Row | Ki [1] | IC50 (MOLT-4 cells; Homo sapiens, MOLT-4, 48 h) | IC50 (MOLT-4 cells) | Structure (SMILES)
1 | 0.023 nM | 1.21 nM | – | Cc1c(Nc2nc3cccc(F)c3s2)nnc2c1CCCN2c1nc(C(=O)O)c(CCCOc2ccc(C#CCN(C)C)cc2F)s1 [Example 82, 5-[3-[4-[3-(Dimethylamino)prop-1-ynyl]-2-fluoro-phenoxy]propyl]-2-[3-[(7-fluoro-1,3-benzothiazol-2-yl)amino]-4-methyl-6,7-dihydro-5H-pyrido[2,3-c]pyridazin-8-yl]thiazole-4-carboxylic acid]
2 | 0.0024 nM | – | 14.2 nM | Cc1c(Nc2nc3ccccc3s2)nnc2c1CCCN2c1ccc(-c2cnn(CC34CC5(C)CC(C)(C3)CC(OCCNCC[C@@H](O)CO)(C5)C4)c2C)c(C(=O)O)n1 [Example 93, 6-{3-[(1,3-benzothiazol-2-yl)amino]-4-methyl-6,7-dihydropyrido[2,3-c]pyridazin-8(5H)-yl}-3-(1-{[3-(2-{[(3R)-3,4-dihydroxybutyl]amino}ethoxy)-5,7-dimethyladamantan-1-yl]methyl}-5-methyl-1H-pyrazol-4-yl)pyridine-2-carboxylic acid]
3 | 0.0027 nM | 0.787 nM | – | Cc1c(Nc2nc3ccccc3s2)nnc2c1CCCN2c1ccc(-c2cnn(CC34CC5(C)CC(C)(CC(CCCNCCCO)(C5)C3)C4)c2C)c(C(=O)O)n1 [Example 170, 6-[3-(1,3-benzothiazol-2-ylamino)-4-methyl-6,7-dihydro-5H-pyrido[2,3-c]pyridazin-8-yl]-3-[1-[[3-[3-(3-hydroxypropylamino)propyl]-5,7-dimethyl-1-adamantyl]methyl]-5-methyl-pyrazol-4-yl]pyridine-2-carboxylic acid]
4 | 0.0046 nM | 0.852 nM | – | Cc1c(Nc2nc3ccccc3s2)nnc2c1CCCN2c1nc(C(=O)O)c(CCCOc2ccc(C#CCNCCCO)cc2F)s1 [Example 147, 2-[3-(1,3-benzothiazol-2-ylamino)-4-methyl-6,7-dihydro-5H-pyrido[2,3-c]pyridazin-8-yl]-5-[3-[2-fluoro-4-[3-(3-hydroxypropylamino)prop-1-ynyl]phenoxy]propyl]thiazole-4-carboxylic acid]
5 | 0.0037 nM | 0.982 nM | – | Cc1c(Nc2nc3ccccc3s2)nnc2c1CCCN2c1ccc(-c2cnn(CC34CC5(C)CC(C)(C3)CC(OCCNCc3ccc(O)cc3)(C5)C4)c2C)c(C(=O)O)n1 [Example 149, 6-[3-(1,3-benzothiazol-2-ylamino)-4-methyl-6,7-dihydro-5H-pyrido[2,3-c]pyridazin-8-yl]-3-[1-[[3-[2-[(4-hydroxyphenyl)methylamino]ethoxy]-5,7-dimethyl-1-adamantyl]methyl]-5-methyl-pyrazol-4-yl]pyridine-2-carboxylic acid]
6 | 0.0028 nM | 1.57 nM | – | Cc1c(Nc2nc3ccccc3s2)nnc2c1CCCN2c1ccc(-c2cnn(CC34CC5(C)CC(C)(C3)CC(OCCN(CCO)CCO)(C5)C4)c2C)c(C(=O)O)n1 [Example 134, 6-[3-(1,3-benzothiazol-2-ylamino)-4-methyl-6,7-dihydro-5H-pyrido[2,3-c]pyridazin-8-yl]-3-[1-[[3-[2-[bis(2-hydroxyethyl)amino]ethoxy]-5,7-dimethyl-1-adamantyl]methyl]-5-methyl-pyrazol-4-yl]pyridine-2-carboxylic acid]
7 | 0.026 nM | 0.573 nM | – | Cc1c(Nc2nc3ccccc3s2)nnc2c1CCCN2c1nc(C(=O)O)c(CCCOc2ccc(C#CC(C)(C)N(C)C)cc2F)s1 [Example 83, 2-[3-(1,3-Benzothiazol-2-ylamino)-4-methyl-6,7-dihydro-5H-pyrido[2,3-c]pyridazin-8-yl]-5-[3-[4-[3-(dimethylamino)-3-methyl-but-1-ynyl]-2-fluoro-phenoxy]propyl]thiazole-4-carboxylic acid]
8 | 0.053 nM | 1.83 nM | – | Cc1c(Nc2nc3ccccc3s2)nnc2c1CCCN2c1nc(C(=O)O)c(CCCOc2ccc(C#CC3(N(C)C)CCCCC3)cc2F)s1 [Example 84, 2-[3-(1,3-Benzothiazol-2-ylamino)-4-methyl-6,7-dihydro-5H-pyrido[2,3-c]pyridazin-8-yl]-5-[3-[4-[2-[1-(dimethylamino)cyclohexyl]ethynyl]-2-fluoro-phenoxy]propyl]thiazole-4-carboxylic acid]
9 | 0.02 nM | 0.995 nM | – | CC(=O)N(C)CC#Cc1ccc(OCCCc2sc(N3CCCc4c3nnc(Nc3nc5ccccc5s3)c4C)nc2C(=O)O)c(F)c1 [Example 139, 5-[3-[4-[3-[acetyl(methyl)amino]prop-1-ynyl]-2-fluoro-phenoxy]propyl]-2-[3-(1,3-benzothiazol-2-ylamino)-4-methyl-6,7-dihydro-5H-pyrido[2,3-c]pyridazin-8-yl]thiazole-4-carboxylic acid]
10 | 0.17 nM | 226 nM | – | Cc1c(Nc2nc3ccccc3s2)nnc2c1CCCN2c1nc(C(=O)O)c(CCCOc2ccc(I)cc2F)s1 [Example 77, 2-[3-(1,3-Benzothiazol-2-ylamino)-4-methyl-6,7-dihydro-5H-pyrido[2,3-c]pyridazin-8-yl]-5-[3-(2-fluoro-4-iodo-phenoxy)propyl]thiazole-4-carboxylic acid]
11 | 0.067 nM | 53.3 nM | – | COC(=O)c1nc(N2CCCc3c2nnc(Nc2nc4ccccc4s2)c3C)sc1CCCOc1ccc(C#CCN)cc1F [Example 126, methyl 5-[3-[4-(3-aminoprop-1-ynyl)-2-fluoro-phenoxy]propyl]-2-[3-(1,3-benzothiazol-2-ylamino)-4-methyl-6,7-dihydro-5H-pyrido[2,3-c]pyridazin-8-yl]thiazole-4-carboxylate]
12 | 0.0057 nM | 0.359 nM | – | CNC(C)(C)C#Cc1ccc(OCCCc2sc(N3CCCc4c3nnc(Nc3nc5ccccc5s3)c4C)nc2C(=O)O)c(F)c1 [Example 91, 2-[3-(1,3-Benzothiazol-2-ylamino)-4-methyl-6,7-dihydro-5H-pyrido[2,3-c]pyridazin-8-yl]-5-[3-[2-fluoro-4-[3-methyl-3-(methylamino)but-1-ynyl]phenoxy]propyl]thiazole-4-carboxylic acid]
13 | 0.0032 nM | 2.85 nM | – | Cc1c(Nc2nc3ccccc3s2)nnc2c1CCCN2c1ccc(-c2cnn(CC34CC5(C)CC(C)(C3)CC(OCCN(CCCCO)CCCCO)(C5)C4)c2C)c(C(=O)O)n1 [Example 140, 6-[3-(1,3-benzothiazol-2-ylamino)-4-methyl-6,7-dihydro-5H-pyrido[2,3-c]pyridazin-8-yl]-3-[1-[[3-[2-[bis(4-hydroxybutyl)amino]ethoxy]-5,7-dimethyl-1-adamantyl]methyl]-5-methyl-pyrazol-4-yl]pyridine-2-carboxylic acid]
14 | 0.0029 nM | 0.0916 nM | – | Cc1ccc2sc(Nc3nnc4c(c3C)CCCN4c3ccc(-c4cnn(CC56CC7(C)CC(C)(C5)CC(OCCN5CCCC5)(C7)C6)c4C)c(C(=O)O)n3)nc2c1 [Example 179, 3-[1-[[3,5-dimethyl-7-(2-pyrrolidin-1-ylethoxy)-1-adamantyl]methyl]-5-methyl-pyrazol-4-yl]-6-[4-methyl-3-[(5-methyl-1,3-benzothiazol-2-yl)amino]-6,7-dihydro-5H-pyrido[2,3-c]pyridazin-8-yl]pyridine-2-carboxylic acid]
15 | 0.0019 nM | – | – | CNCCCc1ccc(OCCCc2sc(N3CCCc4c3nnc(Nc3nc5ccccc5s3)c4C)nc2C(=O)O)c(F)c1 [Example 34, 2-{3-[(1,3-Benzothiazol-2-yl)amino]-4-methyl-5H,6H,7H,8H-pyrido[2,3-c]pyridazin-8-yl}-5-(3-{2-fluoro-4-[3-(methylamino)propyl]phenoxy}propyl)-1,3-thiazole-4-carboxylic acid]
16 | 0.044 nM | – | – | Cc1c(Nc2nc3ccccc3s2)nnc2c1CCCN2c1nc(C(=O)O)c(CCCOc2ccc(C#CCN(CC(C)C)CC(C)C)cc2F)s1 [Example 87, 2-[3-(1,3-Benzothiazol-2-ylamino)-4-methyl-6,7-dihydro-5H-pyrido[2,3-c]pyridazin-8-yl]-5-[3-[4-[3-(diisobutylamino)prop-1-ynyl]-2-fluoro-phenoxy]propyl]thiazole-4-carboxylic acid]
17 | 0.0017 nM | – | – | Cc1c(Nc2nc3cc(O)ccc3s2)nnc2c1CCCN2c1ccc(-c2cnn(CC34CC5(C)CC(C)(C3)CC(OCCN3CCCC3)(C5)C4)c2C)c(C(=O)O)n1 [Example 152, 3-[1-[[3,5-dimethyl-7-(2-pyrrolidin-1-ylethoxy)-1-adamantyl]methyl]-5-methyl-pyrazol-4-yl]-6-[3-[(5-hydroxy-1,3-benzothiazol-2-yl)amino]-4-methyl-6,7-dihydro-5H-pyrido[2,3-c]pyridazin-8-yl]pyridine-2-carboxylic acid]
18 | 0.01 nM | – | – | Cc1c(Nc2nc3ccccc3s2)nnc2c1CCCN2c1nc(C(=O)O)c(CCCOc2cc3c(cc2F)CN(C)CC3)s1 [Example 74, 2-{3-[(1,3-Benzothiazol-2-yl)amino]-4-methyl-5H,6H,7H,8H-pyrido[2,3-c]pyridazin-8-yl}-5-{3-[(7-fluoro-2-methyl-1,2,3,4-tetrahydroisoquinolin-6-yl)oxy]propyl}-1,3-thiazole-4-carboxylic acid]
